Calls of active or inactive are those of the source. The calls are words filed in the database; no cut-off is given here.
How the values were obtained:
[1] = Cytotoxicity in human HepaRG cells assessed as reduction in cell viability; assay type: toxicity, cell-based
[2] = AUClast in male mouse at 5 mg/kg, po; assay type: ADME, organism-based; conditions: in vivo
[3] = Metabolic stability in human liver microsomes assessed as compound remaining measured after 30 mins; assay type: ADME, Microsome; conditions: read-out: Stability
[4] = Selectivity index, ratio of CC50 for cytotoxicity in human HepG2.2.15 cells assessed as reduction in cell viability to EC50 for antiviral activity against HBV in human HepG2.2.15 cells assessed as reduction in viral replication; assay type: toxicity, cell-based; conditions: read-out: Ratio CC50/EC50
[5] = Oral bioavailability in male mouse at 20 mg/kg; assay type: ADME, organism-based; conditions: in vivo
[6] = Half life in male mouse at 5 mg/kg, po; assay type: ADME, organism-based; conditions: in vivo
[7] = Tmax in male mouse at 5 mg/kg, po; assay type: ADME, organism-based; conditions: in vivo
[8] = Half life in male mouse at 20 mg/kg, iv; assay type: ADME, organism-based; conditions: in vivo
HepG2 [9] = experiment: Effect on viral dslDNA level in human HepG2 cells expressing NTCP infected with HBV at 1 uM incubated for 6 days by Southern blot analysis; assay type: functional, cell-based; conditions: time 6.0 day
Hepatitis B virus [10] = experiment: Antiviral activity against HBV infected in human HepG2 cells expressing NTCP assessed as intracellular HBc level at 1 uM incubated for 6 days by Western blot analysis (reference value: 100 %); assay type: functional; conditions: time 6 day
[11] = AUC (0 to infinity) in male mouse at 20 mg/kg, po; assay type: ADME, organism-based; conditions: in vivo
[12] = AUC (0 to infinity) in male mouse at 5 mg/kg, po; assay type: ADME, organism-based; conditions: in vivo
Hepatitis B virus [13] = experiment: Antiviral activity against HBV infected in human HepG2 cells expressing NTCP assessed as capsid level at 1 uM incubated for 6 days by Western blot analysis (reference value: 100 %); assay type: functional; conditions: time 6 day
[14] = Plasma protein binding in mouse; assay type: ADME, cell-free; conditions: read-out: PPB (converted)
[15] = Cytotoxicity in CHO-K1 cells; assay type: toxicity, cell-based, Cricetulus griseus; conditions: Chinese hamster
[16] = Cytotoxicity in mouse L929 cells; assay type: toxicity, cell-based
[17] = molecular target: Core antigen (Hepatitis B virus) (UniProt Q03732); experiment: Binding affinity to HBV core protein dimers extracted from Escherichia coli assessed as clump formation of assembled capsids by negative staining electron microscopic analysis
Sequence of Core antigen (Hepatitis B virus) (Q03732 as listed by the source): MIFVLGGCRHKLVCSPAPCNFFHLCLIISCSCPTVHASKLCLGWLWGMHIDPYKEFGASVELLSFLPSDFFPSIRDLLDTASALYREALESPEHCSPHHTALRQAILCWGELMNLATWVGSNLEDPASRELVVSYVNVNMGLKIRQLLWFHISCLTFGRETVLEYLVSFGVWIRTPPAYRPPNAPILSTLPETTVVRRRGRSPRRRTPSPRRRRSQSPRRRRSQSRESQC

Hepatitis B virus [18] = experiment: Antiviral activity against HBV in human HepaRG cells assessed as reduction in viral replication; assay type: functional, organism-based
Hepatitis B virus [19] = experiment: Antiviral activity against HBV in human HepG2.2.15 cells assessed as reduction in viral replication incubated for 5 days by real-time PCR analysis; assay type: functional, organism-based; conditions: HepG2.2.15, 120 h
[20] = Volume of distribution at steady state in male mouse at 20 mg/kg, iv; assay type: ADME, organism-based; conditions: in vivo, read-out: Vdss
[21] = Selectivity index, ratio of CC50 for cytotoxicity in human HepaRG cells assessed as reduction in cell viability to EC50 for antiviral activity against HBV in human HepaRG cells assessed as reduction in viral replication; assay type: toxicity, cell-based; conditions: read-out: Ratio CC50/EC50
Hepatitis B virus [22] = experiment: Antiviral activity against HBV in human HepG2 cells expressing NTCP assessed as reduction in viral replication; assay type: functional, organism-based
[23] = Cytotoxicity in African green monkey Vero cells; assay type: toxicity, cell-based, Chlorocebus sabaeus
[24] = AUClast in male mouse at 20 mg/kg, po; assay type: ADME, organism-based; conditions: in vivo
[25] = molecular target: Core antigen (Hepatitis B virus) (UniProt Q03732); experiment: Binding affinity to HBV core protein dimers extracted from Escherichia coli assessed as retention volume at peak of capsid assembly by size exclusion chromatography (reference value: 8.63 mL)
[26] = Half life in male mouse at 5 mg/kg, iv; assay type: ADME, organism-based; conditions: in vivo
[27] = Plasma protein binding in human; assay type: ADME, cell-free; conditions: read-out: PPB (converted)
[28] = AUC (0 to infinity) in male mouse at 5 mg/kg, iv; assay type: ADME, organism-based; conditions: in vivo
[29] = Cmax in male mouse at 20 mg/kg, po; assay type: ADME, organism-based; conditions: in vivo
Cytochrome P450 2D6 = Cytochrome P450 2D6 (Homo sapiens, UniProt P10635); experiment: Inhibition of CYP2D6 in human liver microsome; assay type: ADME, microsomes
Sequence of Cytochrome P450 2D6 (P10635 whole entry): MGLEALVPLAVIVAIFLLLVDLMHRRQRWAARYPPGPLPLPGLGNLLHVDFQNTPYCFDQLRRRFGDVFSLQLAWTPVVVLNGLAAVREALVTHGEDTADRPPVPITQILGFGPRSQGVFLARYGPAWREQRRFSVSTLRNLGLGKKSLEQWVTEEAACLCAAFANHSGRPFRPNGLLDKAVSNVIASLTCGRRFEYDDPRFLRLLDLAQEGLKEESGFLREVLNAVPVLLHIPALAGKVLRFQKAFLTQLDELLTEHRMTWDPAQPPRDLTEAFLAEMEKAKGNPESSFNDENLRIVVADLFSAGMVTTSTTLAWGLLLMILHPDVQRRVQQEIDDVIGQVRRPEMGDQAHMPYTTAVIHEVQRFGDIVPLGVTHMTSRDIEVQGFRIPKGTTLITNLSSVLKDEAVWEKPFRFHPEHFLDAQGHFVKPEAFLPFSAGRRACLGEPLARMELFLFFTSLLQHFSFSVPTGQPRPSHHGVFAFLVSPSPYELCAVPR

[30] = AUClast in male mouse at 5 mg/kg, iv; assay type: ADME, organism-based; conditions: in vivo
Hepatitis B virus [31] = experiment: Antiviral activity against HBV infected in human HepG2 cells expressing NTCP assessed as viral DNA replication at 1 uM incubated for 6 days by Southern blot analysis (reference value: 100 %); assay type: functional; conditions: time 6 day
Hepatitis B virus [32] = experiment: Antiviral activity against HBV infected in human HepG2 cells expressing NTCP assessed as decrease in intracellular HBc level at 1 uM incubated for 6 days by indirect immunofluorescence staining based analysis; assay type: functional, organism-based; conditions: time 6.0 day
[33] = Oral bioavailability in male mouse at 5 mg/kg; assay type: ADME, organism-based; conditions: in vivo
[34] = AUC (0 to infinity) in male mouse at 20 mg/kg, iv; assay type: ADME, organism-based; conditions: in vivo
[35] = Cytotoxicity in mouse NIH3T3 cells; assay type: toxicity, cell-based
[36] = Clearance in male mouse at 5 mg/kg, iv; assay type: ADME, organism-based; conditions: in vivo
[37] = molecular target: Voltage-gated inwardly rectifying potassium channel KCNH2 (Homo sapiens, UniProt Q12809); experiment: Inhibition of human ERG; assay type: toxicity
Sequence of Voltage-gated inwardly rectifying potassium channel KCNH2 (Q12809 whole entry): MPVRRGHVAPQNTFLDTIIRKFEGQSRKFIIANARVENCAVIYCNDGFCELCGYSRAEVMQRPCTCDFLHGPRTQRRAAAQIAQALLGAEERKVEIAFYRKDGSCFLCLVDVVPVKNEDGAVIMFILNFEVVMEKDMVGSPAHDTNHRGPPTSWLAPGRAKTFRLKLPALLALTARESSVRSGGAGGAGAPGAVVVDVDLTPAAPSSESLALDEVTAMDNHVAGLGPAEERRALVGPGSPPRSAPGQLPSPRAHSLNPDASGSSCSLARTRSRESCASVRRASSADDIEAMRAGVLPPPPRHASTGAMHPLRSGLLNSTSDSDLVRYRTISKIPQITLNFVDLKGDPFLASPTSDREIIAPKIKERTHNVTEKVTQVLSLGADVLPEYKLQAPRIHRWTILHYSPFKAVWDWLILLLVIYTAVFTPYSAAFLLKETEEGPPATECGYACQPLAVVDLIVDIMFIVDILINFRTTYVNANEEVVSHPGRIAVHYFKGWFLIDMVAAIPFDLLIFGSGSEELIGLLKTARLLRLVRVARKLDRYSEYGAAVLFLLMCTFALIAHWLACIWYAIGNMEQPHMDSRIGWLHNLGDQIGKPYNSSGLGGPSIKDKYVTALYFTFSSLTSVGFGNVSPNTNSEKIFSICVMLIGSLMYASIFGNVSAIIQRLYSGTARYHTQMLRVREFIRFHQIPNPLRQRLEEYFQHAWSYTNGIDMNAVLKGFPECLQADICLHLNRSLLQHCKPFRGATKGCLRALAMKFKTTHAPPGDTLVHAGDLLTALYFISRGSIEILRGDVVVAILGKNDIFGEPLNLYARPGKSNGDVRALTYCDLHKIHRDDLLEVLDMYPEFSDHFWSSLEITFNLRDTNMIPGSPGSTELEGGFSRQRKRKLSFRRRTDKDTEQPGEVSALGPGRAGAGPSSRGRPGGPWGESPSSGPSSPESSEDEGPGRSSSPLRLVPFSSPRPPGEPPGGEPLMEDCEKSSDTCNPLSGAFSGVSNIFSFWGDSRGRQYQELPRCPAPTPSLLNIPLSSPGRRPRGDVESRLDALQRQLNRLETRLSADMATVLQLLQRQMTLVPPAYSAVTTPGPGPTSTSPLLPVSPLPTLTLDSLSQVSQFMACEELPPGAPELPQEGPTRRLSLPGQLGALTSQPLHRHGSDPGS

[38] = Stability in mouse plasma assessed as compound remaining incubated for 4 hrs; assay type: ADME, cell-free; conditions: read-out: Stability
Cytochrome P450 3A4 = Cytochrome P450 3A4 (Homo sapiens, UniProt P08684); experiment: Inhibition of CYP3A4 in human liver microsome; assay type: ADME, microsomes
Sequence of Cytochrome P450 3A4 (P08684 whole entry): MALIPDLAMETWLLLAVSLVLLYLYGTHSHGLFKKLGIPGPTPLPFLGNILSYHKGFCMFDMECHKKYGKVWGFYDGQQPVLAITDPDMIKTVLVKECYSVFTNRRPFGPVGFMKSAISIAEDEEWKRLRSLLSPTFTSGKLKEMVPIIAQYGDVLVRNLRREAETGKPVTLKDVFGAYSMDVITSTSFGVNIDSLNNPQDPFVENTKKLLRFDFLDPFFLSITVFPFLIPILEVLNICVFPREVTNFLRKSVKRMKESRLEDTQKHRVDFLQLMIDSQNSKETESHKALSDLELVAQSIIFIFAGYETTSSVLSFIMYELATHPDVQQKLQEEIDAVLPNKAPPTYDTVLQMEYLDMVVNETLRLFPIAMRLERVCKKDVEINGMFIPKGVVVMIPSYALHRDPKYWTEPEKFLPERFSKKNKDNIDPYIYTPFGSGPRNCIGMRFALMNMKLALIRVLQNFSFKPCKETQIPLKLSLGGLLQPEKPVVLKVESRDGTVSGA

[39] = Metabolic stability in rat liver microsomes assessed as compound remaining measured after 30 mins; assay type: ADME, Microsome; conditions: read-out: Stability
[40] = Cytotoxicity in HFL1 cells; assay type: toxicity, cell-based; conditions: human
Hepatitis B virus [41] = experiment: Antiviral activity against HBV infected in human HepG2 cells expressing NTCP assessed as fold increase in intracellular capsid level at 1 uM incubated for 6 days by Western blot analysis relative to control; assay type: functional; conditions: time 6 day
HepG2 [42] = experiment: Effect on viral rcDNA level in human HepG2 cells expressing NTCP infected with HBV at 1 uM incubated for 6 days by Southern blot analysis; assay type: functional, cell-based; conditions: time 6.0 day
Hepatitis B virus [43] = experiment: Antiviral activity against HBV infected in human HepG2 cells expressing NTCP assessed as ratio of capsid associated HBV DNA level at 1 uM incubated for 6 days by Western blot analysis (reference value: 100 %); assay type: functional; conditions: time 6 day
[44] = Cmax in male mouse at 5 mg/kg, po; assay type: ADME, organism-based; conditions: in vivo
[45] = Cytotoxicity in human HepG2.2.15 cells assessed as reduction in cell viability; assay type: toxicity, cell-based, HepG2 2.2.15
Hepatitis B virus [46] = experiment: Antiviral activity against HBV infected in human HepG2 cells expressing NTCP assessed as fold reduction in capsid associated viral DNA level at 1 uM incubated for 6 days by Southern blot analysis relative to control; assay type: functional; conditions: time 6 day
[47] = Half life in male mouse at 20 mg/kg, po; assay type: ADME, organism-based; conditions: in vivo
Hepatitis B virus [48] = experiment: Antiviral activity against HBV infected in human HepG2 cells expressing NTCP assessed as capsid associated HBV DNA level at 1 uM incubated for 6 days by Western blot analysis (reference value: 100 %); assay type: functional; conditions: time 6 day
HepG2 [49] = experiment: Effect on viral ssDNA level in human HepG2 cells expressing NTCP cells infected with HBV at 1 uM incubated for 6 days by Southern blot analysis; assay type: functional, cell-based; conditions: time 6.0 day
Cytochrome P450 2C9 = Cytochrome P450 2C9 (Homo sapiens, UniProt P11712); experiment: Inhibition of CYP2C9 in human liver microsome; assay type: ADME, microsomes
Sequence of Cytochrome P450 2C9 (P11712 whole entry): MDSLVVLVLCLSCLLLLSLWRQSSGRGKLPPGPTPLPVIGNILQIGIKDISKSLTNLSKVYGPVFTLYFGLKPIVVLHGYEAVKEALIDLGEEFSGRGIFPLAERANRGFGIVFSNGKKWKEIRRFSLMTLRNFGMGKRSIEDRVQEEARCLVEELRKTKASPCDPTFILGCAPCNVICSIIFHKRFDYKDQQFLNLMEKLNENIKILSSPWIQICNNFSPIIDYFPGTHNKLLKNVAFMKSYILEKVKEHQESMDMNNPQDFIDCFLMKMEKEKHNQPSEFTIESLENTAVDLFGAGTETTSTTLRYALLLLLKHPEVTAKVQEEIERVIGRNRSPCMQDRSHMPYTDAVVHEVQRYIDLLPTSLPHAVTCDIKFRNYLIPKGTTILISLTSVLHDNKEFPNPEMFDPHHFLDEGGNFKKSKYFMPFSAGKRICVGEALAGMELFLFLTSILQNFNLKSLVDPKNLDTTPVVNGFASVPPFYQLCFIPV

[50] = Volume of distribution at steady state in male mouse at 5 mg/kg, iv; assay type: ADME, organism-based; conditions: in vivo, read-out: Vdss
[51] = Metabolic stability in mouse liver microsomes assessed as compound remaining measured after 30 mins; assay type: ADME, Microsome; conditions: read-out: Stability

Nc1cc(F)c(S(=O)(=O)NC2COC2)cc1C(=O)Nc1ccc(F)c(C(F)F)c1
CC50 [1]: > 100 µM
AUC(0-t) [2]: 560 ng·h/mL
remaining at 0.5 h [3]: > 100%
selectivity ratio [4]: > 17500
bioavailability [5]: 5.89%
half-life [6]: 55.2 min
Tmax [7]: 15 min
half-life [8]: 576 min
Activity (HepG2 [9]): No effect
Activity (Hepatitis B virus [10]): 113%
AUC(0-inf) [11]: 280 ng·h/mL
AUC(0-inf) [12]: 570 ng·h/mL
Activity (Hepatitis B virus [13]): 205%
fraction unbound [14]: 0.143
IC50 [15]: > 100 µM
IC50 [16]: > 100 µM
Activity [17]: Active
EC50 (Hepatitis B virus [18]): 0.1 µM
EC50 (Hepatitis B virus [19]): 0.05 µM
Vd [20]: 46.5 L/kg
selectivity ratio [21]: > 100
EC50 (Hepatitis B virus [22]): 0.02 µM
IC50 [23]: > 100 µM
AUC(0-t) [24]: 270 ng·h/mL
Activity [25]: 8.62 mL
half-life [26]: 533 min
fraction unbound [27]: 0.128
AUC(0-inf) [28]: 900 ng·h/mL
Cmax [29]: 370 ng/mL
IC50 (Cytochrome P450 2D6): > 100 µM
AUC(0-t) [30]: 850 ng·h/mL
Activity (Hepatitis B virus [31]): 6%
Activity (Hepatitis B virus [32]): Active; Compound Modestly Decreased Hbc Level
bioavailability [33]: 66.2%
AUC(0-inf) [34]: 5460 ng·h/mL
IC50 [35]: > 100 µM
clearance [36]: 92.7 mL/min/kg
IC50 [37]: > 10 µM
remaining at 4 h [38]: 94.5%
IC50 (Cytochrome P450 3A4): > 100 µM
remaining at 0.5 h [39]: 45.4%
IC50 [40]: > 100 µM
fold change (FC) (Hepatitis B virus [41]): ~2
Activity (HepG2 [42]): No effect
Ratio (Hepatitis B virus [43]): 6%
Cmax [44]: 540 ng/mL
CC50 [45]: > 900 µM
fold change (FC) (Hepatitis B virus [46]): 16
half-life [47]: 52.2 min
Activity (Hepatitis B virus [48]): 14%
Activity (HepG2 [49]): No effect
IC50 (Cytochrome P450 2C9): > 100 µM
Vd [50]: 29.1 L/kg
remaining at 0.5 h [51]: 56.8%
